What all share (format): biochemical
Experiment [1] deals with T1, human lysosomal β-glucosidase (GCase) (Homo sapiens, UniProt P04062).
T1 construct: in leukocytes isolated from healthy donors (controls); endogenous in cells; host or cells: human leukocytes from healthy donors, disrupted by sonication (crude homogenate)
T1 sequence (P04062 40-536): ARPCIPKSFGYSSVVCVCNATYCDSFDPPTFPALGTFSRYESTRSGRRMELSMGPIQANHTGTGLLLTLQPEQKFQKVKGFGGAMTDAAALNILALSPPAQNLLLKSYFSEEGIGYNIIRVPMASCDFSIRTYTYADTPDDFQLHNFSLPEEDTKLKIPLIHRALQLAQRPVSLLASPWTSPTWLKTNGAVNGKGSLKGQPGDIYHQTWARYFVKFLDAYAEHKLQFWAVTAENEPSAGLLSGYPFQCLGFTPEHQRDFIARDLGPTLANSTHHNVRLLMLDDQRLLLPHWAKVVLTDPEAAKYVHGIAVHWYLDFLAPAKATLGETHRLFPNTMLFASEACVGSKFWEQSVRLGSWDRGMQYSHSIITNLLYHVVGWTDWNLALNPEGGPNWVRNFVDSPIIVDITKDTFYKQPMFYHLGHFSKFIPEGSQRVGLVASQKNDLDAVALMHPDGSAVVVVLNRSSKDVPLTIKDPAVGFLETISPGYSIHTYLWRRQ
In words: GCase inhibition in human leukocyte homogenates. The note with it: human leukocytes extracts; for inhibition at 1000 µM / GCase Inhibition (%): compounds 1 mM; for IC50: 4-methylumbelliferyl-β-D-glucoside 3.33 mM. As for the experimental part: The new compounds were screened at 1 mM concentration towards β-galactosidase (β-Gal) and β-glucosidase (GCase) in leukocytes isolated from healthy donors (controls). Isolated leukocytes were disrupted by sonication, and a Micro BCA Protein Assay Kit (Sigma–Aldrich, St. Louis, MO, USA) was used to determine the total protein amount for the enzymatic assay, according to the manufacturer’s instructions.
GCase activity was measured in a flat-bottomed 96-well plate. Compound solution (3 µL), 4.29 µg/µL leukocytes homogenate (7 µL), and substrate 4-methylumbelliferyl-β-D-glucoside (3.33 mM, 20 µL, Sigma–Aldrich Chemie Gmbh, Munich, Germany)) in citrate/phosphate buffer (0.1:0.2, M/M, pH 5.8) containing sodium taurocholate (0.3%) and Triton X-100 (0.15%) at 37 °C were incubated for 1 h. The reaction was stopped by addition of sodium carbonate (200 µL; 0.5 M, pH 10.7) containing Triton X-100 (0.0025%), and the fluorescence of 4-methylumbelliferone released by β-glucosidase activity was measured in SpectraMax M2 Microplate Reader (λex = 365 nm and λem = 435 nm; Molecular Devices LLC, San Jose, CA, US). Percentage GCase inhibition is given with respect to the control (without compound). Data are mean SD (n = 3). For compounds showing GCase inhibitory activity higher than 80% at 1 mM concentration, the IC50 values were determined by measuring the initial hydrolysis rate with 4-methylumbelliferyl-β-D-glucoside (3.33 mM). Data obtained were fitted by using the appropriate equation (for more details, see the Supplementary Materials).
IC50 for compounds 9, 10, 12 and 21 towards human lysosomal β-glucosidase The IC50 values of inhibitors against β-glucosidase were determined by measuring the initial hydrolysis rate with 4-methylumbelliferyl-β-D-glucoside (3.33 mM). Data obtained were fitted to the following equation using the Origin Microcal program. where Vi/Vo, represent the ratio between the activity measured in the presence of the inhibitor (Vi) and the activity of the control without the inhibitor (V0), “x” the inhibitor concentration, Max and Min, the maximal and minimal enzymatic activity observed, respectively.
Figure S48: IC of compound 9 towards GCase
Figure S49: IC50 of compound 10 towards GCase
(also on this page, place not known: Min x MinMax Vo Vi slope + […] […] […] […] […] […]+ −= 1 be tween (V i) (V 0), IC50) […]

For experiment [2], the target named is T2, α-L-fucosidase EC 3.2.1.51 (Homo sapiens, UniProt P04066).
T2 construct: purchased Sigma-Aldrich or Megazyme Ltd
T2 sequence (P04066 32-466): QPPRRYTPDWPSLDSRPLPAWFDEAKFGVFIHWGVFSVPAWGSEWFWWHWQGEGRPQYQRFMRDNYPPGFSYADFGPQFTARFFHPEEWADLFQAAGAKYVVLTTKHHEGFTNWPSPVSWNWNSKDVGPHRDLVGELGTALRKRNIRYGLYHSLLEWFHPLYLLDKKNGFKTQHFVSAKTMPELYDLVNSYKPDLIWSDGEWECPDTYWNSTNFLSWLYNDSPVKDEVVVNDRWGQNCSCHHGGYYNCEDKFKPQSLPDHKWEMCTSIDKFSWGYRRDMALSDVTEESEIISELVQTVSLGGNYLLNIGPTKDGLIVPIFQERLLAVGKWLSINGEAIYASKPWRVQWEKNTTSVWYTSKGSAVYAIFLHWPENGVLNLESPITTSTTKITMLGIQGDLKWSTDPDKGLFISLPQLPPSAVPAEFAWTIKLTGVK
In words: Commercial glycosidase screening. The note with it: 0.1 mM inhibitor. An excerpt:
(§1) A panel of 12 commercial glycosidases (α-L-fucosidase EC 3.2.1.51 from Homo sapiens, α-galactosidase EC 3.2.1.22 from coffee beans, β-galactosidases EC 3.2.1.23 from Escherichia coli and Aspergillus oryzae, α-glucosidases EC 3.2.1.20 from yeast and rice, amyloglucosidase EC 3.2.1.3 from Aspergillus niger, β-glucosidase EC 3.2.1.21 from almonds, α-mannosidase EC 3.2.1.24 from Jack beans, β-mannosidase EC 3.2.1.25 from snail, β-N-acetylglucosaminidases EC 3.2.1.52 from Jack beans and bovine kidney) purchased from Sigma-Aldrich (St. Louis, MO, USA) or Megazyme Ltd. (Bray, Co. Wicklow, Ireland) was screened.
(§2) The percentage (%) of inhibition towards the corresponding glycosidase was determined in quadruplicate in the presence of 100 μM of the inhibitor on the well. Each enzymatic assay (final volume 0.12 mL) contains 0.01–0.5 units/mL of the enzyme (with previous calibration) and 4.2 mM aqueous solution of the appropriate p-nitrophenyl glycopyranoside (substrate) buffered to the optimal pH of the enzyme. Enzyme and inhibitor were preincubated for 5 min at room temperature, and the reaction started by addition of the substrate. After 20 min of incubation at 37 °C, the reaction was stopped by the addition of 0.1 mL of sodium borate solution (pH 9.8). The p-nitrophenolate formed was measured by visible absorption spectroscopy at 405 nm (Asys Expert 96 spectrophotometer, Biochrom Ltd., Cambridge, England). Under these conditions, the p-nitrophenolate released led to optical densities linear with both reaction time and concentration of the enzyme (for more details, see the Supplementary Materials). The IC50 value (concentration of inhibitor required for 50% inhibition of enzyme activity) was determined from plots of % inhibition vs. different inhibitor concentrations. Each point of the graph is the average of four measures. The standard deviation for each point has been also represented in the graph.

For experiment [3], the target named is T3, α-galactosidase EC 3.2.1.22 (Coffea arabica, UniProt Q42656).
T3 construct: purchased Sigma-Aldrich or Megazyme Ltd
T3 sequence (Q42656 16-378): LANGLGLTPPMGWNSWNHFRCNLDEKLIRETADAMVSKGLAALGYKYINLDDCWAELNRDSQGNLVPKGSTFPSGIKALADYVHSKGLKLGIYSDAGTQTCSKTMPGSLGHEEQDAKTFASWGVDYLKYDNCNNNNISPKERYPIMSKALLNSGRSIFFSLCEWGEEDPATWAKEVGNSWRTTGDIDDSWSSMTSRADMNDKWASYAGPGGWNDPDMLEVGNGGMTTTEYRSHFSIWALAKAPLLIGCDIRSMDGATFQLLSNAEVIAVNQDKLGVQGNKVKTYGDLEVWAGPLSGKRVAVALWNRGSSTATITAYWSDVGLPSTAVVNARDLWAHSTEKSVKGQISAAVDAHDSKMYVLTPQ
In words: Commercial glycosidase screening. The note with it: 0.1 mM inhibitor; read-out: % Inhibition at 0.1 mM, α-galactosidase coffee beans.
Text: as §1, §2

Structures are written as SMILES. Some results are limits rather than exact numbers.

Regarding `CCCCCCCCCO[C@@H]1CNC[C@@H](O)[C@H]1O` [compound 21, (3R, 4R, 5R)-4,5-Dihydroxy-3-(Nonyloxy) Piperidine], in experiment [1], the inhibition at 1000 µM is more than 90% and the IC50 amounted to 130 ± 13 µM. The “GCase Inhibition (%)” value in experiment [1] (listed as C00016) amounted to 100%. The same compound came in with an inhibition at 100 µM in experiment [2] of 0%. Moreover, in experiment [3], the inhibition at 100 µM is 0%.

Consider `CCCCCCCCCCCCN[C@H]1CNC[C@@H](O)[C@H]1O` [compound 10, (3R, 4S, 5S)-3,4-Dihydroxy-5-(Dodecylamino) Piperidine], for which, in experiment [1], the inhibition at 1000 µM is more than 90% and the IC50 came out at 6.4 ± 0.7 µM. The “GCase Inhibition (%)” value in experiment [1] (listed as C00010) is 100%. This compound also returned an inhibition at 100 µM in experiment [2] of 0%. In addition, in experiment [3], the inhibition at 100 µM was 0%.

In experiment [1], `CCCCCCCC[C@]1(O)CNC[C@@H](O)[C@H]1O` [compound 12, (3S, 4R, 5R)-3,4,5-Trihydroxy-3-Octyl-Piperidine] displayed an inhibition at 1000 µM of more than 90% and an IC50 of 60 ± 23 µM. Besides, in experiment [1] (listed as C00012), the “GCase Inhibition (%)” value is on record as 93%. The compound further came in with an inhibition at 100 µM in experiment [2] of 0%. Besides, the inhibition at 100 µM in experiment [3] turned out to be 0%.

Turning to `CCCCCCCCCO[C@H]1CNC[C@@H](O)[C@H]1O` [compound 9, (3S, 4R, 5R)-4,5-Dihydroxy-3-(Nonyloxy) Piperidine], in experiment [1], the inhibition at 1000 µM was more than 90% and half-maximal inhibition (IC50) required 12 ± 6 µM. Besides, the “GCase Inhibition (%)” value in experiment [1] (listed as C00009) was determined as 98%.

In general, inhibition refers to the relative decrease from the control value, in per cent. What is called IC50 is the concentration that inhibits the measured activity by half.
